From US11166965B2, “Compositions for use in stimulating bone growth” (Société des Produits Nestlé S.A., priority 2013, dated 2021)

System: primary osteoblasts
Assay: Alkaline phosphatase (ALP) activity of osteoblasts
Assay type: cell-based, Wistar rats
Conditions: day 15 of treatment; 10^-9 M 1,25(OH)2D3, 1 μM OLP, 1 μM HTy; vs negative control (C-); FIGS. 3 to 6
Method: Primary osteoblasts were isolated from the calvaria of newborn Wistar rats by enzymatic digestion as described by Declercq et al. in 2004. During all experiments, cells were maintained in α-minimal essential medium with 10% heat-inactivated fetal bovine serum and 1% penicillin/streptomycin under conditions of 5% CO2 and 37° C. Cells were seeded on Coll-1-coated 96-well plates at a density of 3500 cells/well or in 24-well plates at a density of 3×10^4 cells/well and cultured for 2 days in o-MEM to reach confluence. Cells were then exposed to different conditions: minimal medium (C−), minimal medium containing 50 μg/ml ascorbic acid, 5 mM ß-glycerophosphate (C+; optimized medium), and minimal medium supplemented with 1 μM Oleuropein ([…]) or/and 10^−9 M 1,25 dihydroxyvitamin D3 (1,25(OH)2D3). OLP and HTy were dissolved in dimethylsulfoxide (DMSO) and 1,25(OH)2D3 was dissolved in ethanol. The final concentrations of DMSO and ethanol in the medium were 0.1% each. The medium was changed every 2 days.
Enzymatic activity of Alkaline Phosphatase (ALP) was measured kinetically on Treatment Days 0, 5, 9, 12 and 15. Osteoblasts were rinsed twice with PBS before being frozen on dry ice. […] Absorbance was measured at 405 nm and 30° C., and every 2 min 30 s for 30 min using a VarioSklan Flash microplate reader. ALP activity was expressed as micromoles of p-NPP per hour per milligram of protein. […]

C=C1/C(=C\C=C2/CCC[C@]3(C)[C@@H]([C@H](C)CCCC(C)(C)O)CC[C@@H]23)C[C@@H](O)C[C@@H]1O [Vitamin D3, 1,25 dihydroxyvitamin D3]
AP (ALP) activity / osteoblast activity: small but statistically significant increase
